As a reminder, the MIC is the smallest concentration in the dilution series that meets the test's criterion for growth inhibition.

In brackets after ≈: the same amount, converted by molar mass.

The test deals with Mycobacterium tuberculosis. In words: Antimycobacterial activity against multidrug-resistant Mycobacterium tuberculosis 2745/09. Format: functional.

With `Cc1ccc(CNc2nc(=O)c3cc(C(F)(F)F)cc([N+](=O)[O-])c3s2)n1C`, the minimal inhibitory concentration (MIC) is at most 0.125 µg/mL.

As for `CN(C(=O)CN1CCN(c2nc(=O)c3cc(C(F)(F)F)cc([N+](=O)[O-])c3s2)CC1)c1ccccc1`, the MIC was found to be 0.03 µg/mL (≈ 0.0591 µM).

Regarding `O=c1nc(N2CCC(F)(F)CC2)sc2c([N+](=O)[O-])cc(C(F)(F)F)cc12`, the MIC is at most 0.125 µg/mL.

`O=c1nc(NCc2ccc3c(c2)OCCO3)sc2c([N+](=O)[O-])cc(C(F)(F)F)cc12` gave an MIC of 0.03 µg/mL (≈ 0.0683 µM).

With `CCCOCC1COC2(CCN(c3nc(=O)c4cc(C(F)(F)F)cc([N+](=O)[O-])c4s3)CC2)O1` (configuration not stated), the MIC is at most 0.015 µg/mL.

Compound `O=c1nc(N2CCC(c3ccccc3)CC2)sc2c([N+](=O)[O-])cc(C(F)(F)F)cc12` yielded an MIC of at most 0.0125 µg/mL.

For `O=c1nc(N2CCN(c3nccs3)CC2)sc2c([N+](=O)[O-])cc(C(F)(F)F)cc12`, the MIC is at most 0.125 µg/mL.

`COC(=O)C1CN(c2nc(=O)c3cc(C(F)(F)F)cc([N+](=O)[O-])c3s2)CCC12OC[C@H](C)O2` (some centres not stated) had an MIC of over 0.1 µg/mL.

Regarding `C[C@H]1COC2(CCN(c3nc(=O)c4cc(C(F)(F)F)cc([N+](=O)[O-])c4s3)CC2)O1` [BTZ-043], the MIC was at most 0.015 µg/mL.

`COC(=O)[C@@H]1OC2(CCN(c3nc(=O)c4cc(C(F)(F)F)cc([N+](=O)[O-])c4s3)CC2)O[C@H]1c1ccccc1` registered an MIC of over 0.03 µg/mL.

Compound `CN(C)c1ccc(CN(C)c2nc(=O)c3cc(C(F)(F)F)cc([N+](=O)[O-])c3s2)cc1` registered an MIC of 0.03 µg/mL (≈ 0.0684 µM).

Compound `CN(c1nc(=O)c2cc(C(F)(F)F)cc([N+](=O)[O-])c2s1)[C@H]1CCN(Cc2ccccc2)C1` showed an MIC of over 0.03 µg/mL.

The values above are taken from ChEMBL document CHEMBL2177104, “Identification of antitubercular benzothiazinone compounds by ligand-based design” (J Med Chem, 2012).
